Read-outs that look alike come from different tables or passages of the source.
Legend:
[1] = molecular target: recombinant RORγ Ligand Binding Domain (LBD) protein (Homo sapiens (Human), UniProt P51449); test: Radio-Ligand RORγ Binding Assay (Assay 1); conditions: competition with 25-hydroxy [26,27-3H]-cholesterol, SPA, read-out: RORγ Binding Ki Range*
How it was run: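 Scintillation proximity competition binding of 8.6 nM stock 25-hydroxy[26,27-3H]cholesterol to 24 nM stock 6×His-GST-tagged human RORγ LBD, in 50 mM HEPES pH 7.4 with NaCl, MgCl2, glycerol, CHAPS, β-octylglucopyranoside and DTT, room temperature. Inhibition referenced to DMSO and 10 μM T0901317; IC50 by four-parameter fit, converted to Ki using radioligand concentration and KD.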

[2] = molecular target: full-length RORγt in Jurkat cells (Homo sapiens (Human), UniProt P51449); test: RORγt 5xRORE Assay in Jurkat Cells (Assay 2); format: cell-based; conditions: Nanoluc luciferase reporter, 16-18 hrs
Chain of full-length RORγt in Jurkat cells (P51449 other isoform, or with tags, fused parts or gaps): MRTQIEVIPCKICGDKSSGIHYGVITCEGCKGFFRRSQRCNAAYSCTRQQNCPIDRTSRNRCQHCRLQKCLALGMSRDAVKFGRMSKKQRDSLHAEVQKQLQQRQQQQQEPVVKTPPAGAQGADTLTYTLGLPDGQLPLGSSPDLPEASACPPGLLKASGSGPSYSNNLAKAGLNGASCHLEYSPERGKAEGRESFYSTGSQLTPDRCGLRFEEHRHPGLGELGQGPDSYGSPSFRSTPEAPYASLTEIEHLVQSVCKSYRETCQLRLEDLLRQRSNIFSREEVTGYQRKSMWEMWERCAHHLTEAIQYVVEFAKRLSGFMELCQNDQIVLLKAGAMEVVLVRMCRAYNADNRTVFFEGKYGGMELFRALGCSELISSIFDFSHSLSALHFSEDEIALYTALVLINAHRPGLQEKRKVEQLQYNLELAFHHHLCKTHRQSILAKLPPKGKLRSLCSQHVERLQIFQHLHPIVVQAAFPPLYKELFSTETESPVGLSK
How it was run: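 Jurkat cells co-transfected with full-length RORγt expression plasmid and a 5×RORE-driven secreted Nanoluc reporter, then plated at 80,000 cells/well in phenol-red-free RPMI with 10% delipidated FBS. Compounds added at 0.1% DMSO for 16–18 h at 37 °C; supernatant luciferase read for inverse agonism.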

[3] = Table 8, read-out: RORγt5X IC50 Range*
[4] = Table 9, read-out: RORγt5X IC50 Range*

Chain of recombinant RORγ Ligand Binding Domain (LBD) protein (P51449 269-508): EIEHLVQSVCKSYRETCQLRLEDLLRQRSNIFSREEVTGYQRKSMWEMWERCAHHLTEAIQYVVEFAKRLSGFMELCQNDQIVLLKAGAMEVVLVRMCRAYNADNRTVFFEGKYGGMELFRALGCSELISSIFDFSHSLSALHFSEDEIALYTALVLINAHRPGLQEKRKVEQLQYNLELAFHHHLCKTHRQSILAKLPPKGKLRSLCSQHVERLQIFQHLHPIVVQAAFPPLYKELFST

| Compound | Ki ([1]; Table 8) | IC50 [2, 3] | Ki ([1]; Table 9) | IC50 [2, 4] |
| --- | --- | --- | --- | --- |
| CC(C)[C@H]1c2nc(NS(=O)(=O)c3ccc(CC(=O)O)cc3)sc2CN1Cc1ccc(C#N)c(F)c1 [I-D2, (S)-2-(4-(N-(5-(4-cyano-3-fluorobenzyl)-4-isopropyl-5,6-dihydro-4H-pyrrolo[3,4-d]thiazol-2-yl)sulfamoyl)phenyl)acetic acid] | < 0.1 µM | > 1 µM | – | – |
| CC(C)[C@H]1c2nc(NC(=O)Cc3ccc(C#N)cc3)sc2CN1Cc1ccc(Cl)cc1 [I-E1, (S)—N-(5-(4-chlorobenzyl)-4-isopropyl-5,6-dihydro-4H-pyrrolo[3,4-d]thiazol-2-yl)-2-(4-cyanophenyl)acetamide] | < 0.1 µM | 0.1 to 1 µM | – | – |
| CCS(=O)(=O)c1ccc(CC(=O)Nc2nc3c(s2)CN(Cc2ccc(F)cc2)C3Cc2cccc(Br)c2)cc1 (stereo not shown) [I-F1, N-(4-(3-bromobenzyl)-5-(4-fluorobenzyl)-5,6-dihydro-4H-pyrrolo[3,4-d]thiazol-2-yl)-2-(4-(ethylsulfonyl)phenyl)acetamide] | < 0.1 µM | > 1 µM | – | – |
| CC(C)[C@H]1c2nc(NC(=O)Cc3ccc(S(=O)(=O)NC4CC4)cc3)sc2CN1Cc1ccc(Cl)cc1 [I-G1, (S)—N-(5-(4-chlorobenzyl)-4-isopropyl-5,6-dihydro-4H-pyrrolo[3,4-d]thiazol-2-yl)-2-(4-(N-cyclopropylsulfamoyl)phenyl)acetamide] | < 0.1 µM | < 0.1 µM | – | – |
| CC[C@H](C)[C@H]1c2nc(NC(=O)Cc3ccc(S(C)(=O)=O)cc3)sc2CN1Cc1ccc(Cl)cc1 [I-H1, N—((S)-4-((S)-sec-butyl)-5-(4-chlorobenzyl)-5,6-dihydro-4H-pyrrolo[3,4-d]thiazol-2-yl)-2-(4-(methylsulfonyl)phenyl)acetamide] | < 0.1 µM | < 0.1 µM | – | – |
| CC[C@H](C)C1c2nc(NC(=O)Cc3ccc(S(C)(=O)=O)cc3)sc2CN1Cc1ccc(C#N)c(F)c1 (stereo partly shown) [I-H2] | < 0.1 µM | < 0.1 µM | – | – |
| CC[C@H](C)C1c2nc(NC(=O)Cc3ccc(S(C)(=O)=O)cc3)sc2CN1Cc1ccc(Cl)cn1 (stereo partly shown) [I-H3] | < 0.1 µM | < 0.1 µM | – | – |
| CCS(=O)(=O)c1ccc(CC(=O)Nc2nc3c(s2)CN(Cc2ccc(C#N)cn2)[C@@]3(C)C(C)C)cc1 [I-I1, (S)—N-(5-((5-cyanopyridin-2-yl)methyl)-4-isopropyl-4-methyl-5,6-dihydro-4H-pyrrolo[3,4-d]thiazol-2-yl)-2-(4-(ethylsulfonyl)phenyl)acetamide] | < 0.1 µM | < 0.1 µM | – | – |
| CCS(=O)(=O)c1ccc(CNC(=O)c2nc3c(s2)CN(Cc2ccc(Cl)cc2)[C@H]3C(C)C)cc1 [I-J1, (S)-5-(4-chlorobenzyl)-N-(4-(ethylsulfonyl)benzyl)-4-isopropyl-5,6-dihydro-4H-pyrrolo[3,4-d]thiazole-2-carboxamide] | < 0.1 µM | < 0.1 µM | – | – |
| CCS(=O)(=O)c1ccc(CNC(=O)c2nc3c(s2)CN(Cc2ccc(C#N)cc2)[C@H]3C(C)C)cc1 [I-J2] | < 0.1 µM | < 0.1 µM | – | – |
| CCS(=O)(=O)c1ccc(CNC(=O)c2nc3c(s2)CN(Cc2ccc(-c4nnn(C)n4)cc2)[C@H]3C(C)C)cc1 [I-J3] | < 0.1 µM | < 0.1 µM | – | – |
| CCS(=O)(=O)c1ccc(CNC(=O)c2nc3c(s2)CN(Cc2ccc(C(F)(F)F)cn2)[C@H]3C(C)C)cc1 [I-J4] | < 0.1 µM | < 0.1 µM | – | – |
| CCS(=O)(=O)c1ccc(CNC(=O)c2nc3c(s2)CN(C[C@@H]2CN(C(=O)OC(C)(C)C)CCO2)[C@H]3C(C)C)cc1 [I-J5] | < 0.1 µM | < 0.1 µM | – | – |
| CCS(=O)(=O)c1ccc(CNC(=O)c2nc3c(s2)CN(Cc2ccc(OC(F)F)cc2)[C@H]3C(C)C)cc1 [I-J6] | < 0.1 µM | < 0.1 µM | – | – |
| CC(C)[C@H]1c2nc(C(=O)NCc3ccc(S(C)(=O)=O)cc3)sc2CN1Cc1ccc(Cl)cn1 [I-K1, (S)-5-((5-chloropyridin-2-yl)methyl)-4-isopropyl-N-(4-(methylsulfonyl)benzyl)-5,6-dihydro-4H-pyrrolo[3,4-d]thiazole-2-carboxamide] | < 0.1 µM | 0.1 to 1 µM | – | – |
| CC(C)[C@H]1c2nc(C(=O)NCc3ccc(S(C)(=O)=O)cc3)sc2CN1Cc1ccc(OC(F)F)cc1 [I-K2] | < 0.1 µM | < 0.1 µM | – | – |
| COC(=O)c1ccc(CN2Cc3sc(C(=O)NCc4ccc(S(C)(=O)=O)cc4)nc3[C@@H]2C(C)C)cc1 [I-K3] | < 0.1 µM | < 0.1 µM | – | – |
| CCS(=O)(=O)c1ccc(CNC(=O)c2nc3c(s2)CN(Cc2ccc(Cl)cc2)[C@H]3C(C)C)nc1 [I-L1, (S)-5-(4-chlorobenzyl)-N-((5-(ethylsulfonyl)pyridin-2-yl)methyl)-4-isopropyl-5,6-dihydro-4H-pyrrolo[3,4-d]thiazole-2-carboxamide] | < 0.1 µM | < 0.1 µM | – | – |
| CC(C)[C@H]1c2nc(NC(=O)Cc3ccc(S(C)(=O)=O)cc3F)sc2CN1Cc1ccc(C#N)cc1 [I-M1, (S)—N-(5-(4-cyanobenzyl)-4-isopropyl-5,6-dihydro-4H-pyrrolo[3,4-d]thiazol-2-yl)-2-(2-fluoro-4-(methylsulfonyl)phenyl)acetamide] | < 0.1 µM | < 0.1 µM | – | – |
| CCS(=O)(=O)c1ccc(CC(=O)Nc2nc3c(s2)CN(Cc2ccc(C#N)cc2)[C@H]3C(C)C)nc1 [drawing 230] | – | – | < 0.1 µM | < 0.1 µM |
| CCS(=O)(=O)c1ccc(CC(=O)Nc2nc3c(s2)CN(Cc2ccc(C#N)cn2)[C@@]3(C)C(C)C)cc1 [drawing 270] | – | – | < 0.1 µM | < 0.1 µM |
| CC(C)[C@H]1c2nc(C(=O)NCc3ccc(S(C)(=O)=O)cc3)sc2CN1Cc1ccc(Cl)cn1 [drawing 378] | – | – | < 0.1 µM | 0.1 to 1 µM |
| CC(C)[C@H]1c2nc(NS(=O)(=O)c3ccc(CC(=O)O)cc3)sc2CN1Cc1ccc(C#N)c(F)c1 [drawing 411] | – | – | < 0.1 µM | > 1 µM |

The remaining lines, values ahead:

| Ki ([1]; Table 8) | IC50 [2, 3] | Ki ([1]; Table 9) | IC50 [2, 4] | Compound |
| --- | --- | --- | --- | --- |
| < 0.1 µM | < 0.1 µM | – | – | CC(C)[C@H]1c2nc(NC(=O)Cc3ccc(S(C)(=O)=O)cc3)sc2CN1Cc1ccc(C#N)cc1 [I-B18] |
| < 0.1 µM | < 0.1 µM | – | – | CC(C)[C@H]1c2nc(NC(=O)Cc3ccc(S(C)(=O)=O)cc3)sc2CN1Cc1ccc(C(F)(F)F)cc1 [I-B19] |
| < 0.1 µM | < 0.1 µM | – | – | CCS(=O)(=O)c1ccc(CC(=O)Nc2nc3c(s2)CN(Cc2ccc(Cl)cc2)[C@H]3C(C)C)nc1 [I-C1, (S)—N-(5-(4-chlorobenzyl)-4-isopropyl-5,6-dihydro-4H-pyrrolo[3,4-d]thiazol-2-yl)-2-(5-(ethylsulfonyl)pyridin-2-yl)acetamide] |
| < 0.1 µM | < 0.1 µM | – | – | CCS(=O)(=O)c1ccc(CC(=O)Nc2nc3c(s2)CN(Cc2ccc(OC(F)F)cc2)[C@H]3C(C)C)nc1 [I-C2] |
| < 0.1 µM | < 0.1 µM | – | – | CCS(=O)(=O)c1ccc(CC(=O)Nc2nc3c(s2)CN(Cc2ccc(C(F)(F)F)cc2)[C@H]3C(C)C)nc1 [I-C4] |
| < 0.1 µM | < 0.1 µM | – | – | CCS(=O)(=O)c1ccc(CC(=O)Nc2nc3c(s2)CN(C[C@H]2CC[C@@](C)(OC)CC2)[C@H]3C(C)C)nc1 [I-C6] |
| < 0.1 µM | < 0.1 µM | – | – | CCS(=O)(=O)c1ccc(CC(=O)Nc2nc3c(s2)CN(Cc2ccc(-c4ccn(C)c(=O)c4)cc2)[C@H]3C(C)C)nc1 [I-C7] |
| < 0.1 µM | < 0.1 µM | – | – | CCS(=O)(=O)c1ccc(CC(=O)Nc2nc3c(s2)CN(C[C@H]2CC[C@@](OC)(C(F)(F)F)CC2)[C@H]3C(C)C)nc1 [I-C8] |
| < 0.1 µM | < 0.1 µM | – | – | CCS(=O)(=O)c1ccc(CC(=O)Nc2nc3c(s2)CN(Cc2ccc(-c4nnn(C)n4)cc2)[C@H]3C(C)C)nc1 [I-C9] |
| < 0.1 µM | < 0.1 µM | – | – | CCS(=O)(=O)c1ccc(CC(=O)Nc2nc3c(s2)CN(Cc2ccc(C#N)c(Cl)c2)[C@H]3C(C)C)nc1 [I-C10] |
| < 0.1 µM | < 0.1 µM | – | – | CCS(=O)(=O)c1ccc(CC(=O)Nc2nc3c(s2)CN(Cc2ccc(C#N)cc2)[C@H]3C(C)C)nc1 [I-C11] |
| < 0.1 µM | > 1 µM | – | – | CC(C)[C@H]1c2nc(NS(=O)(=O)c3ccc(CC(=O)O)cc3)sc2CN1Cc1ccc(Cl)cc1 [I-D1, (S)-2-(4-(N-(5-(4-chlorobenzyl)-4-isopropyl-5,6-dihydro-4H-pyrrolo[3,4-d]thiazol-2-yl)sulfamoyl)phenyl)acetic acid] |
